Read-outs that look alike come from different tables or passages of the source.
Key:
[1] = target: T1, recombinant alpha-crystallin core domain (ACD) of cryAB protein (residues 68-153) (Homo sapiens, UniProt P02511); test: Differential scanning fluorimetry (DSF), protein thermal stability change; format: binding; details: SYPRO orange
T1 construct: alpha-crystallin core domain (ACD) of cryAB protein (residues 68-153)
T1 sequence (P02511 68-153): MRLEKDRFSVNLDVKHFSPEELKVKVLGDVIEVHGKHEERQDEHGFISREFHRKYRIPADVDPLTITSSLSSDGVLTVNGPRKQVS
Procedure: 2.4 μL of 10 mM compound stocks in DMSO were added to the wells of a 96-well plate containing 51.6 μL of 7 μM recombinant alpha-crystallin core domain (ACD) of cryAB protein (residues 68-153) in DSF buffer (50 mM Tris-HCl, 100 mM NaCl, 0.5 mM ZnCl2, 0.5 mM MgCl2, 0.5 mM CaCl2, pH8.0), and subsequently 6 μL 10× SYPRO orange protein gel stain (Invitrogen) was added for a final volume of 60 μL per well. Each well was mixed, and then 10 μL was added in quadruplicates to a MicroAmp Optical 384-well reaction plate with barcode (ThermoFisher). The plate was sealed with a MicroAmp Optical adhesive film (ThermoFisher), centrifuged at 1,000×g for 2 min, and loaded into a QuantStudio 6 Flex real-time PCR system (Applied Biosystems). The DSF assay was performed by heating the plate from 30° C. to 80° C. with 0.5° C. increments per cycle over 100 cycles. Each cycle was held for 90 s after reaching the temperature, and the fluorescent signal (520 nm excitation/558 nm emission) was measured.
The data curve was fitted using a Boltzmann model (GraphPad Prism Version 7) for a fitting range from 25° C. to the temperature at which the fluorescence signal was highest plus 3-5° C. The Tm was determined to be the temperature at the midpoint between the highest and lowest fluorescent signals on the curve. Results of the assay for compounds 1.18, 1.21 and 1.25 are in the following table and FIG. 1.

[2] = Chemical stability in PBS buffer; format: physicochemical
Procedure: 10 mM compound working solutions were made by adding 10 μL of a 50 mM DMSO stock solution in 40 μL methanol. To make 20 μM compound working solutions, 1 μL of a 10 mM stock solution is added to 499 μL of methanol. Internal standard and quenching solutions were prepared by dissolving 1 mg/mL of terfenadine or tolbutamide in appropriate amounts of DMSO. A quenching solution was prepared containing 25 ng/ml terfenadine plus 50 ng/ml tolbutamide by diluting both stock solutions together in a 1:1 mixture of methanol:acetonitrile. Phosphate buffered saline (PBS) solutions at pH5 and pH7 were prepared by adjusting the pH of stock PBS with concentrated hydrochloric acid. To tubes labeled with a pre-determined time point (0, 5, 15, 30, 60, 120 min) was added 2 μL of 20 μM compound working solution. In each tube, 38 μL of PBS buffer was added to the vial, vortexed, and incubated at 37° C. for the corresponding time. After incubation, 300 μL of the quenching solution containing internal standard was added to the tube and vortexed to mix. The sample was centrifuged at 4000 rpm for 15 min, and 100 μL of supernatant transferred to a 0.65 ml tube for LC/MS analysis. Each compound and timepoint was analyzed by reverse phase HPLC with MS detection performed using a Sciex API 4500 Qtrap.

[3] = Plasma stability (rabbit); format: in vitro ADME; details: 37° C., read-out: Plasma stability (rabbit) t ½
Procedure: (§1) A 4 mM compound stock solution was prepared by dissolving the appropriate amount of compound in MeOH, then a […] was prepared by adding 2 μL aforementioned 4 mM stock solution in 78 μL DMSO. A 10 mM control stock solution was prepared by dissolving the appropriate amount of tetracaine in DMSO, then a 10 μM control working solution was prepared by diluting the stock in DMSO. A 1 mg/ml terfenadine mixed with 2 mg/mL tolbutamide stock solution was prepared by dissolving an appropriate amount of each in DMSO, then a 1 ng/mL terfenadine mixed with 2 ng/mL tolbutamide internal standard solution was prepared by diluting the stock solution in methanol:acetonitrile (1:1, v/v). Both stock and internal standard solutions were stored at 4° C. Whole blood was centrifuged (obtained from in life group or donors) at 4000 rpm at 4° C. for 15 min to obtain plasma. Plasma was stored at −80° C. for future use. Before use, plasma was pre-warmed at 37° C. in a water bath for 15 min (500 μL per compound or control). After warming, 5 μL compound or control was added into 495 μL plasma, then vortexed to mix. […] The MS detection was performed using a Sciex API 4000 Qtrap and 6500 Plus instrument, and each compound was analyzed by reverse phase HPLC.

[4] = Plasma stability (human); format: in vitro ADME; details: 37° C., read-out: Plasma stability (human) t ½
Procedure: as §1

[5] = Solubility remark in amyloid disaggregation assay; format: physicochemical; details: assay solution, 5% DMSO
Procedure: The procedure used to evaluate disassembly of amyloids in ex vivo cataractous solutions was adapted from Chemerovski-Glikman et al., Scientific Reports 8, Article number: 9341 (2018). Nuclear and cortical lens tissue from human donors (92F, 96M) was homogenized in PBS with protease inhibitor for 60 seconds on ice. The protein concentration of the lysate was measured by Bicinchoninic Acid Assay (Pierce BCA Protein Assay Kit, ThermoFisher), and then the lysate was diluted to a total protein concentration of 0.075 mg/mL. Thioflavin T dye (Sigma-Aldrich) was added to a final concentration of 1 μM. […] After incubation with orbital shaking at 37° C., the fluorescence was read every two hours for 94 hours at an excitation wavelength of 440 nm and emission wavelength of 485 nm. Results of the assay for compounds 1.18, 1.21, 1.25 or control are in FIG. 3.

[6] = in water; cited from earlier work
[7] = PBS pH 5, 37° C., read-out: Chem stability (t ½ @ pH = 5)
[8] = PBS pH 7, 37° C., read-out: Chem stability (t ½ @ pH = 7)

Compound | Δ Tm (° C.) Mean (n = 2) [1] | half-life at 1 µM [2, 7] | half-life at 1 µM [2, 8] | half-life at 0.1 µM [3] | half-life at 0.1 µM [4] | solubility (in words) [5] | aqueous solubility [6]
C[C@H](CCCC(C)(C)O)[C@H]1CC[C@H]2[C@@H]3CC=C4C[C@@H](OC(=O)CCC(=O)O)CC[C@]4(C)[C@H]3CC[C@]12C [Compound 1.18] | −5.7 °C | > 8.33 h | > 8.33 h | > 8.33 h | > 8.33 h | limited solubility | –
C[C@H](CCCC(C)(C)O)[C@H]1CC[C@H]2[C@@H]3CC=C4C[C@@H](OC(=O)CC[C@H](N)C(=O)O)CC[C@]4(C)[C@H]3CC[C@]12C [Compound 1.21] | −1.7 °C | – | – | – | – | – | –
C[C@H](CCCC(C)(C)O)[C@H]1CC[C@H]2[C@@H]3CC=C4C[C@@H](OC(=O)OCC[N+](C)(C)C)CC[C@]4(C)[C@H]3CC[C@]12C.[I-] [Compound 1.25] | −1.8 °C | > 8.33 h | > 8.33 h | > 8.33 h | > 8.33 h | – | –
CC(C)CCC[C@@H](C)[C@H]1CC[C@H]2[C@@H]3CC=C4C[C@@H](O)CC[C@]4(C)[C@H]3CC[C@]12C [cholesterol] | – | – | – | – | – | – | less than 0.5 mg/100 mL
